Data reported in ChEMBL document CHEMBL1268839, “Small molecules targeting the interaction between HIV-1 integrase and LEDGF/p75 cofactor” (Bioorg Med Chem, 2010).
pIC50: −log10 of the molar value.

Legend:
[1] = Selectivity ratio of compound IC50 to CHIBA-3003 IC50 for HIV-1 His6-tagged integrase-recombinant flag-tagged LEDGF/p75 interaction
[2] = Inhibition of HIV1 His6-tagged integrase-recombinant flag-tagged LEDGF/p75 interaction at 100 uM after 1 hr by alphascreen assay
[3] = Inhibition of HIV-1 His6-tagged integrase-recombinant flag-tagged LEDGF/p75 interaction 1 hr by alphascreen assay

SMILES	Ratio IC50 [1]	inhibition [2]	pIC50 [3]
Cc1cc(C)cc(Cn2cc(C(=O)/C=C(\O)C(=O)O)c3c(O)cccc32)c1	10	94%	5.46
CCOC(=O)/C(O)=C/C(=O)c1cn(Cc2ccc(C)cc2C)c2cccc(O)c12	–	58%	–
CCOC(=O)/C(O)=C/C(=O)c1cn(Cc2cc(C)cc(C)c2)c2cccc(O)c12	–	52%	–
CCOC(=O)/C(O)=C/C(=O)c1cn(Cc2cccc(C)c2)c2cccc(O)c12	–	45%	–
CCOC(=O)/C(O)=C/C(=O)c1cn(Cc2cccc(C)c2C)c2cccc(O)c12	–	57%	–
Cc1cccc(Cn2cc(C(=O)C3=C(O)C(=O)OC3)c3c(O)cccc32)c1C	–	70%	–
Cc1ccc(C)c(Cn2cc(C(=O)/C=C(\O)C(=O)O)c3c(O)cccc32)c1	–	40%	–
CCOC(=O)/C(O)=C/C(=O)c1cn(Cc2c(C)cccc2C)c2cccc(O)c12	–	47%	–
O=C(O)/C(O)=C/C(=O)c1cn(Cc2ccc(F)cc2)c2cccc(O)c12	–	56%	4.12
Cc1cccc(C)c1Cn1cc(C(=O)C2=C(O)C(=O)OC2)c2c(O)cccc21	–	70%	5.12
Cc1cccc(Cn2cc(C(=O)/C=C(\O)C(=O)O)c3c(O)cccc32)c1C	–	93%	4.55
Cc1ccc(C)c(Cn2cc(C(=O)C3=C(O)C(=O)OC3)c3c(O)cccc32)c1	–	38%	–
Cc1cccc(Cn2cc(C(=O)/C=C(\O)C(=O)O)c3c(O)cccc32)c1	–	16%	–
Cc1ccccc1Cn1cc(C(=O)/C=C(\O)C(=O)O)c2c(O)cccc21	–	20%	–
Cc1cccc(Cn2cc(C(=O)C3=C(O)C(=O)OC3)c3c(O)cccc32)c1	–	61%	4.27
O=C(O)/C(O)=C/C(=O)c1c[nH]c2cccc(O)c12	–	71%	4.46
Cc1cc(C)cc(Cn2cc(C(=O)C3=C(O)C(=O)OC3)c3c(O)cccc32)c1	–	69%	3.91
CCOC(=O)/C(O)=C/C(=O)c1cn(Cc2cc(C)ccc2C)c2cccc(O)c12	–	33%	–
Cc1ccccc1Cn1cc(C(=O)C2=C(O)C(=O)OC2)c2c(O)cccc21	–	34%	–
CCOC(=O)/C(O)=C/C(=O)c1cn(Cc2ccc(C)cc2)c2cccc(O)c12	–	60%	3.77
Cc1ccc(Cn2cc(C(=O)C3=C(O)C(=O)OC3)c3c(O)cccc32)c(C)c1	–	96%	4.93
Cc1ccc(Cn2cc(C(=O)/C=C(\O)C(=O)O)c3c(O)cccc32)c(C)c1	–	55%	–
CCOC(=O)/C(O)=C/C(=O)c1cn(Cc2ccccc2C)c2cccc(O)c12	–	24%	–
Cc1ccc(Cn2cc(C(=O)/C=C(\O)C(=O)O)c3c(O)cccc32)cc1	–	86%	4.17
Cc1ccc(Cn2cc(C(=O)C3=C(O)C(=O)OC3)c3c(O)cccc32)cc1	–	81%	5.06
Cc1cccc(C)c1Cn1cc(C(=O)/C=C(\O)C(=O)O)c2c(O)cccc21	–	72%	–
